Test results: PMC4445981, “The glutamate transport inhibitor DL-Threo-β-Benzyloxyaspartic acid (DL-TBOA) differentially affects SN38- and oxaliplatin-induced death of drug-resistant colorectal cancer cells” (BMC Cancer, 2015)

Legend:
Format in all cases: cell-based, human
[1] = system: parental and drug-resistant HCT116 and LoVo cell lines; test: MTT viability assay, HCT116 and LoVo cell lines; settings: Homo sapiens; parental HCT116 and LoVo; 48 h; 0.8 μM SN38 (highest dose tested); read-out: viable cells remaining
Experimental: Fig. 2 DL-TBOA augments SN38-induced death in SN38-resistant cells, but protects oxaliplatin-resistant cells from oxaliplatin-induced death. Parental and drug-resistant HCT116 and LoVo cell lines seeded in 96-well dishes were exposed to SN38 (0.1 or 0.8 μM) or oxaliplatin (0.8 or 20 μM), alone or in combination with 70 or 350 μM DL-TBOA as indicated, for 48 h. Viability was assessed by MTT assay. a-b Parental HCT116 cells, (c) SN38 resistant HCT116 cells, (d) Oxaliplatin-resistant HCT116 cells, (e-f) Parental LoVo cells, (g) SN38 resistant LoVo cells, (h) Oxaliplatin-resistant LoVo cells. Data are means with S.E.M. error bars of 3 independent experiments. *) p < 0.05, **) p < 0.01, ***) p < 0.001 compared to the control group without drug or TBOA treatment; #) p < 0.05 compared to controls without TBOA treatment. One-way ANOVA followed by Dunnett post-test
Cells were seeded at appropriate density (LoVo 10,000, and HCT116 5000 cells /100 μl) in growth medium in 96-well plates. Next day, cells were treated with inhibitors and/or chemotherapy in a total volume of 200 μl in growth medium and incubated for 48 h at 37 °C, 5 % CO2. The medium was replaced with 100 μl of 0.5 mg/ml 3-(4,5-dimethylthiazol-2-yl)-2,5-diphenyltetrazolium bromide (MTT) in growth medium. The reaction was stopped 1.5-2.5 h later by addition of 100 μl 20 % SDS in 0.02 M HCl, and incubation overnight to allow complete lysis of cells and formazan crystals. Absorbance was measured in an ELISA plate reader (Thermo Scientific MultiScan FC) at 550 nm. Data were background subtracted and % viability relative to controls calculated.

[2] = system: cellular reduced glutathione (GSH); test: Cellular GSH level; settings: parental HCT116 cells; 24 h; 0.8 μM SN38 or 20 μM oxaliplatin
Experimental: Fig. 4 Effect of glutamate transporter inhibition on cellular GSH levels. a Basal intracellular GSH levels were measured as described in Materials and Methods, and normalized to total protein in the samples. b-c Normalized basal GSH levels under control conditions, in HCT116 and LoVo parental and resistant cells after 24 h of treatment with 0.8 μM SN38 or 20 μM oxaliplatin, in absence or presence of DL-TBOA (350 μM) as shown. * p < 0.05 vs untreated control group (n = 5). One-way ANOVA followed by Dunnett post-test
Cells were seeded in 24-well plates (10^4 cells per well), treated the next day with chemotherapy and/or DL-TBOA and incubated for 24 h. Medium was removed and cells were washed twice with ice-cold PBS, which was removed and 500 μl ice-cold 1 % Sulfosalicylic acid was added per well. Cells were incubated on ice for at least 10 min. After centrifugation (1 min, 15,000 g), 10 μl lysate was used to determine total GSx content. To measure GSSG content, 130 μl sample was mixed with 55 μl 0.2 M Tris (pH 9) and 5 μl 2-Vinylpyridine. Tubes were vortexed carefully and incubated for at least 1 h at room temperature. 10 μl of this mix was mixed first with 90 μl of water in a 96-well plate and then with a reaction mix (0.1 M sodium phosphate buffer pH 7.5 containing 1 mM EDTA, 10 mM NADPH, 10 mM DTNB and 0.05 μl Glutathione reductase, 2U/μl). Measurements were taken every 30 s for 10 min in an ELISA plate reader (Thermo Scientific MultiScan FC) at 405 nm absorbance. GSH values were obtained by subtraction of GSSG values from GSx values.

p53 = p53 protein level by Western blotting; settings: 24 h
Experimental: Fig. 5 Effects of DL-TBOA on cell death and survival parameters after chemotherapy treatment. Parental and drug-resistant HCT116 (a) and LoVo (b) cell lines were exposed to SN38 (0.8 μM) or oxaliplatin (20 μM), alone or in combination with 350 μM DL-TBOA as indicated, for 24 h. Equal amounts of protein per lane were separated by SDS-PAGE and the protein level of p53 was determined by Western blotting. Top: Representative Western blots, with p150 as loading control. Bottom: Densitometric quantifications based on 3 independent experiments per condition. Data are means with S.E.M. error bars of 3 independent experiments. *) p < 0.05, **) p < 0.01, ***) p < 0.001,****) p < 0.0001 compared to the control group without drug or TBOA treatment; Two-way ANOVA with Tukey post-test
(§1) Cells were grown to a confluence of 60-80 % and treated with chemotherapy, siRNA- or plasmid transfection as indicated. Cells were washed once in PBS, lysed in lysis buffer (1 % SDS, 0.1 M Tris pH 7.5, and 1 mM Na3VO4), sonicated, and protein content determined (DC assay, BioRad). Lysates were mixed 2:1with NuPage LDS sample buffer (Invitrogen). SDS-PAGE was carried out in NOVEX chambers with NuPAGE 10 % Bis-Tris gels under reducing and denaturing conditions, using BenchMark protein ladder (Invitrogen), and 15 μg protein per lane. Proteins were transferred to PVDF membranes, which were Ponceau S stained, blocked for 1 h at 37 °C in 5 % nonfat dry milk in TBST (0.01 M Tris/HCl, 0.15 M NaCl, 0.1 % Tween 20, pH 7.4), incubated overnight at 4 °C with primary antibodies diluted in blocking buffer, washed in TBST, incubated with secondary antibodies for 1 h, washed in TBST, and developed using BCIP/NBT (KPL). Bands were scanned and quantified using UN-SCAN-IT (Silk Scientific).

p21^WAF1/Cip (p21) = test: p21 protein level by Western blotting; settings: 24 h
Experimental: as §1
Supplementary file 12885_2015_1405_MOESM3_ESM.tiff: Additional file 3: Figure S3. Effects of DL-TBOA on cell death and survival parameters after chemotherapy treatment of HCT116 cells. Parental and drug-resistant HCT116 cell lines seeded in 6-well dishes were exposed to SN38 (0.8 μM) or oxaliplatin (20 μM), alone or in combination with 350 μM DL-TBOA as indicated, for 24 h. Equal amounts of protein per lane were separated by SDS-PAGE and the protein levels of p21, and PARP-1 (full-length and cleaved, the latter indicated by arrowheads) were determined by Western blotting. Top: Representative Western blots, with p150 as loading control. Bottom: Densitometric quantifications based on 3 independent experiments per condition. Data are means with S.E.M. error bars of 3 independent experiments. *) p < 0.05, **) p < 0.01, ***) p < 0.001,****) p < 0.0001 compared to the control group without drug or TBOA treatment; #) p < 0.05 compared to controls without TBOA treatment. Two-way ANOVA with Tukey post-test.

PARP-1 cleavage = PARP-1 cleavage by Western blotting; settings: HCT116 parental, oxaliplatin-resistant and SN38-resistant cells; 0.8 μM SN38, 24 h
Experimental: as §1
Supplementary file 12885_2015_1405_MOESM3_ESM.tiff: Additional file 3: Figure S3. […] Equal amounts of protein per lane were separated by SDS-PAGE and the protein levels of p21, and PARP-1 (full-length and cleaved, the latter indicated by arrowheads) were determined by Western blotting. […] Bottom: Densitometric quantifications based on 3 independent experiments per condition. […]

[3] = system: SLC1A1 localization in HCT116 cells; test: Immunofluorescence analysis of SLC1A1 subcellular localization; settings: parental HCT116 cells; 48 h; 0.8 μM SN38 or 20 μM oxaliplatin
Experimental: Immunofluorescence analysis was carried out essentially as in [47]. Cells grown on glass coverslips were fixed in 2 % paraformaldehyde, washed in TBST, permeabilized for 5 min (0.5 % Triton X-100 in TBST), blocked for 30 min in 5 % BSA in TBST, incubated with SLC1A1 primary antibody in TBST + 1 % BSA overnight at 4 °C, washed in TBST, and with Rhodamine-phalloidin and AlexaFluor488 conjugated secondary antibody (1:600 in TBS + 1 % BSA) for 1 h, followed by washing in TBST, and mounting in N-propyl-galleate mounting medium (2 % w/v in PBS/glycerol). DAPI was added for 3 min following incubation with the secondary antibody. Cells were visualized using the 60X/1.35 NA objective of an Olympus Bx63 epifluorescence microscope. […] Overlays were carried out using Adobe Photoshop software. No other image adjustment was performed.

[4] = SN38-resistant HCT116 cells, 0.8 μM SN38 or 20 μM oxaliplatin
[5] = oxaliplatin-resistant HCT116 cells, 0.8 μM SN38
[6] = parental HCT116 cells, 0.8 μM SN38 or 20 μM oxaliplatin

**Q.** With `CCc1c2c(nc3ccc(O)cc13)-c1cc3c(c(=O)n1C2)COC(=O)[C@]3(O)CC` [SN38, 7-ethyl-10-hydroxycamptothecin] as the molecule, how does the viability at 0.8 µM [1] read?
**A.** ~20%

**Q.** And the “effect on cellular GSH levels” value [2]?
**A.** slightly increased GSH levels

**Q.** And the p53 protein level (p53; [4])?
**A.** essentially no effect on p53 expression

**Q.** What about the p53 protein level (p53; [5]) of the same molecule?
**A.** only SN38 induced p53 and p21 expression

**Q.** What about the p53 protein level (p53; [6]) of the same molecule?
**A.** markedly induced

**Q.** What about the p21 protein level (p21^WAF1/Cip (p21); [4]) of the same molecule?
**A.** modestly increased p21 expression

**Q.** What about the p21 protein level (p21^WAF1/Cip (p21); [5]) of the same molecule?
**A.** only SN38 induced p53 and p21 expression

**Q.** What about the p21 protein level (p21^WAF1/Cip (p21); [6]) of the same molecule?
**A.** markedly induced

**Q.** What about the PARP-1 cleavage (PARP-1 cleavage) of the same molecule?
**A.** induced by SN38 in parental and oxaliplatin-resistant, yet not in SN38-resistant, cells

**Q.** What about the SLC1A1 subcellular localization [3] of the same molecule?
**A.** marked shift in SLC1A1 localization towards the perinuclear/nuclear region
